According to US9290529B2, “Carbonic anhydrase inhibitors and method of their production” (USTAV ORGANICKE CHEMIE A BIOCHEMIE AKADEMIE VED CESKE …, priority 2011, dated 2016):

How the values were obtained:
[1] = tested on: CCRF-CEM; test: MTT cytotoxicity assay, CCRF-CEM; format: cell-based, human; settings: 72 h
From the text: (§1) One of the parameters used as the basis for colorimetric assays is the metabolic activity of viable cells. For example, a microtiter assay which uses the tetrazolium salt MTT is now widely used to quantitate cell proliferation and cytotoxicity (Hájduch et al., Cytotechnology, 19, 1996, 243-245). For instance, this assay is used in drug screening programs and in chemosensitivity testing. Because tetrazolium salts are cleaved only by metabolically active cells, these assays exclusively detect viable cells. In the case of the MTT assay, yellow soluble tetrazolium salt is reduced to a coloured water-insoluble formazan salt. After it is solubilized, the formazan formed can easily and rapidly be quantified in a conventional ELISA plate reader at 570 nm (maximum absorbancy). The quantity of reduced formazan corresponds to the number of vital cells in the culture.
(§2) All cells were purchased from the […] (ATCC), unless otherwise indicated: the CEM line are highly chemosensitive T-lymphoblastic leukemia cells, K562 cells were derived from patient with […] with bcr-abl translocation, A549 line is lung adenocarcinoma, HCT116 is colorectal tumor cell line and its p53 gene knock-down counterpart (HCT116p53−) is a model of human cancers with p53 mutation frequently associated with poor prognosis. The daunorubicin resistant subline of CEM cells (CEM-DNR bulk) and paclitaxel resistant subline K562-tax were selected in our laboratory by the cultivation of maternal cell lines in increasing concentrations of daunorubicine or paclitaxel, respectively (Noskova et al., Neoplasma 49, 2002, 418). The CEM-DNR bulk cells overexpress MRP-1 protein, while K562-tax cells overexpress P-glycoprotein, both proteins belong to family of ABC transporters and are involved in primary and/or acquired multidrug resistance phenomenon (Noskova et al., Neoplasma 49, 2002, 418). The cells were maintained in Nunc/Corning 80 cm^2 plastic tissue culture flasks and cultured in cell culture medium (DMEM/RPMI 1640 with 5 g/l glucose, 2 mM glutamine, 100 U/ml penicillin, 100 μg/ml streptomycin, 10% fetal calf serum, and NaHCO3).
(§3) This assay was performed according to Hajduch et al., Anti-Cancer Drugs 10, 1997, 1007. Cell suspensions were prepared and diluted according to the particular cell type and the expected target cell density (2 500-30 000 cells/well based on cell growth characteristics). Cells were added by pipette (80 μl) into 96-well microtiter plates. Inoculates were allowed a pre-incubation period of 24 h at 37° C. and 5% CO2 for stabilization. Four-fold dilutions, in 20-μl aliquots, of the intended test concentration were added to the microtiter plate wells at time zero. All test compound concentrations were examined in duplicate. Incubation of the cells with the test compounds lasted for 72 h at 37° C., in a 5% CO2 atmosphere at 100% humidity. At the end of the incubation period, the cells were assayed using MTT. Aliquots (10 μl) of the MTT stock solution were pipetted into each well and incubated for a further 1-4 h. After this incubation period the formazan produced was dissolved by the addition of 100 μl/well of 10% aq SDS (pH=5.5), followed by a further incubation at 37° C. overnight. The optical density (OD) was measured at 540 nm with a Labsystem iEMS Reader MF. Tumor cell survival (TCS) was calculated using the following equation: TCS=(ODdrug-exposed well/mean ODcontrol wells)×100%. The TCS50 value, the drug concentration lethal to 50% of the tumor cells, was calculated from appropriate dose-response curves.

[2] = tested on: CEM-DNR; test: MTT cytotoxicity assay, CEM-DNR; format: cell-based, human; settings: 72 h
From the text: as §1, §2, §3

[3] = tested on: A549; test: MTT cytotoxicity assay, A549; format: cell-based, human; settings: 72 h
From the text: as §1, §2, §3

[4] = tested on: HCT116; test: MTT cytotoxicity assay, HCT116; format: cell-based, human; settings: 72 h
From the text: as §1, §2, §3

[5] = tested on: HCT116p53−/−; test: MTT cytotoxicity assay, HCT116p53−/−; format: cell-based, human; settings: 72 h
From the text: as §1, §2, §3

[6] = tested on: BJ; test: MTT cytotoxicity assay, BJ; format: cell-based; settings: 72 h
From the text: as §1, §3

[7] = tested on: MRC-5; test: MTT cytotoxicity assay, MRC-5; format: cell-based; settings: MRC-5, MTT, 72 h
From the text: as §1, §3

[8] = tested on: HCT116 cells; test: Flow cytometric measurement of intracellular pH (pHi), HCT116 expressing CAIX; format: cell-based, human; settings: for pHi: HCT116, carboranes at 1 μM, 24 hour incubation, control 7.516; for intracellular acidification in HCT116 cells: carboranes 1 μM versus acetazolamide 50 μM
Protocol: (§4) The effect of carborane CAIX (carbonic anhydrase IX) inhibitors was evaluated on colorectal cancer cell line HCT116 expressing CAIX enzyme versus CA IX negative cell line of T-lymphoblastic leukemia CCRF-CEM. Acetazolamide, a known inhibitor of CAIX, was used as a standard. HCT116/CCRF-CEM cells were cultivated in McCoy/RPMI Media supplemented with 10% FCS and antibiotics and seeded at high density ([…] per 3.5 cm dish) to induce pericellular hypoxia and thus stimulate CA IX expression. Measurement of pHi was assessed as described in Cianchi et al. [Cianchi F., et al. Selective inhibition of carbonic anhydrase IX decreases cell proliferation and induces […] apoptosis in human cancer cells. The Journal of Pharmacology and Experimental Therapeutics, 2010, Vol. 334, No. 3, 710-719].
(§5) […] The pHi was measured by flow cytometry in cell cultures pretreated with 10 μM of pH sensitive probe carboxyseminaphtorhoda-fluor-1-acetoxymethyl ester (SNARF, Invitrogen, CA) for 15 min at 37° C. After incubation, the cells were washed twice with PBS. Because the addition of bicarbonate can affect pHi, all incubation and cell washes were performed in bicarbonate-free buffer. SNARF was excited at 488 nm and emitted at 580 and 640 nm. The ratio of the emission wavelengths at 640/580 nm was then used to estimate the pHi from a calibration curve. The calibration curve was prepared by nigericin clamp technique. In this method, after the SNARF labeling of untreated cells, aliquots of cell suspensions were re-suspended in a high potassium containing buffer at specific pH (usually 6.8, 7.0, 7.2, 7.4, 7.6 and 7.8). The cell suspensions were then clamped at a specific pH value by the addition of 0.03 μM nigericin (Sigma-Aldrich). Nigericin is a ionophore that allows the exchange of H for K ions, thus abolishing the pH gradient across the cell membrane. When the internal and external K concentrations are approximately equal, the pH rapidly equilibrates to the pH of the bathing solution. A total of 20,000 events were acquired on a FACS ARIA II flow cytometer (Becton. Dickinson) for further analysis.
(§6) The fluorescent ratio values (640/580 nm) calculated for each pH point were further used to construct calibration curve in Prism software (GraphPad Software, Inc., San Diego, Calif.), from which the pHi values in treated cells were determined (Table 3).

[9] = tested on: CCRF-CEM cells; test: Flow cytometric measurement of intracellular pH (pHi), CA IX negative CCRF-CEM; format: cell-based, human; settings: carboranes at 1 μM, 24 hour incubation, control 7.362
Protocol: as §4, §5, §6

Substance | IC50 [1] [µM] | IC50 [2] [µM] | IC50 [3] [µM] | IC50 [4] [µM] | IC50 [5] [µM] | IC50 [6] [µM] | IC50 [7] [µM] | pHi [8] | pHi [9] | intracellular acidification in HCT116 cells [8]
8-propylenesulfamide-7-phenyl-(7,8-nido-dicarbaundecabor)ate (1-) [CB-13] | 62 ± 3 | 68 ± 1.6 | 86.5 ± 4.6 | 55.5 ± 1.8 | 61.3 ± 4.9 | 88.4 ± 6.1 | 75.6 ± 1.5 | 7.51 | 7.452 | 
8-ethylaminomethylsulfamide-8″-methoxy-3,3′-commo-bis(decahydro-1,2-dicarba-3-cobalta(III)-closo-dodecabor)ate (1-) [CB-15] | 17.3 ± 1.2 | 47.9 ± 7.6 | 33.7 ± 7.7 | 16.6 ± 0.2 | 17.6 ± 0.9 | 65.2 ± 4.4 | 27 ± 4.8 | 7.343 | 7.472 | better than acetazolamide
1-methylenesulfamide-3,3′-commo-bis(1,2-dicarba-3-cobalta(III)-closo-dodecabor)ate (1-) [CB-5] | 85.4 ± 22.6 |  | ≥ 100 | 75.3 ± 4.1 | 64.7 ± 9.1 | ≥ 100 | 93.2 ± 7 | 7.483 | 7.378 | 
7-methylensulfamide-8-phenyl-(7,8-nido-dikarbaundekabor)ate (1-) [CB-6] | 20.2 ± 1.7 | 98.1 ± 3 | 77.8 ± 10.8 | 78.4 ± 17 | 24.2 ± 3.2 | ≥ 100 |  | 7.192 | 7.352 | better than acetazolamide
7-methylensulfamide-(7,8-nido-dicarbaundekaborate) (1-) [CB-2] |  | 96.7 ± 3.8 | ≥ 100 | ≥ 100 |  | ≥ 100 | ≥ 100 | 7.572 | 7.308 | 
8-diethyleneoxysulfamide-3,3′-commo-bis(decahydro-1,2-dicarba-3-cobalta(III)-closo-dodekabor)ate (1-) [CB-17] | 95.1 ± 5 | ≥ 100 | ≥ 100 | ≥ 100 | ≥ 100 | ≥ 100 | ≥ 100 | 7.571 | 7.412 | 
9-sulfamide-9′-amine-2,2′-commo-bis(1,7,9-trikarba-2-ferra(II)-kloso-dodekabor)ane [CB-12] | ≥ 100 | ≥ 100 | ≥ 100 | ≥ 100 | ≥ 100 | ≥ 100 | ≥ 100 | 7.704 | 7.395 | 
1-sulfamide-closo-1-carbadodecaborate (1-) [CB-3] | ≥ 100 |  | ≥ 100 | ≥ 100 | ≥ 100 | ≥ 100 | ≥ 100 | 7.479 | 7.362 | 
